In ChEMBL document CHEMBL1152079, “Synthesis and biological evaluation of novel 2-vinyl carbapenems. Remarkable DHP-1 stability of 1-substituted analogs” (1996) one finds MIC, Susceptibility and Recovery data, which are given here for seven molecules.

The subject of assay [1] is Staphylococcus aureus. The experiment in a line: Compound was tested for its minimal inhibitory concentration against Staphylococcus aureus 3004 (Methicillin resistant S. aureus). In kind it is functional.
Assay [2] relates to Staphylococcus aureus. Description: Compound was tested for its minimal inhibitory concentration against Staphylococcus aureus 209 JC-1. It counts as functional.
Assay [3] addresses T1, Dipeptidase 1 (Sus scrofa) (UniProt P22412).
T1 sequence (whole entry): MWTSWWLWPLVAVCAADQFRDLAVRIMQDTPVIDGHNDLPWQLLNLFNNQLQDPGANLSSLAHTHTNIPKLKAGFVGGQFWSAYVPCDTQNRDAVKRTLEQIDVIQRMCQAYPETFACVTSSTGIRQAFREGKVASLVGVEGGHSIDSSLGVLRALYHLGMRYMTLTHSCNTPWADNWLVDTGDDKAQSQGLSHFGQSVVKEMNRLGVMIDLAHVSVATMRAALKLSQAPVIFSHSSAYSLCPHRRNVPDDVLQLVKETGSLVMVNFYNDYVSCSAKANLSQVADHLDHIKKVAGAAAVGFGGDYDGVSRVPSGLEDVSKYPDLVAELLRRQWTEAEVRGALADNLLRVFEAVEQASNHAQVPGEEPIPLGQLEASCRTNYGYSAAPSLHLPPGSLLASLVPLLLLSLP
Description: Susceptibility relative to imipenem was measured against Swine renal Dehydropeptidase-1.

The subject of another assay is Proteus vulgaris. The experiment in a line: Compound was tested for its minimal inhibitory concentration against Proteus vulgaris IAM 1025. It counts as functional.
The next assay relates to Pseudomonas aeruginosa. The experiment in a line: Compound was tested for its minimal inhibitory concentration against Pseudomonas aeruginosa 26. It counts as functional.
The subject of the next assay is Escherichia coli. The experiment in a line: Compound was tested for its minimal inhibitory concentration against Escherichia coli NIHJ JC-2. In kind it is functional.
Assay [4] relates to Mus musculus. The experiment in a line: Percent urinary recovery was measured in mice after subcutaneous administration at dose 20 mg/kg. The conditions noted are these: Urine. Also on record: dose 20 mg/kg. It counts as functional, organism-based.
The subject of the next assay is Cercopithecidae. Description: Susceptibility relative to meropenem was measured against monkey DHP-1.
Assay [5] has as its system Dipeptidase 1 (Canis lupus familiaris). Description: Susceptibility relative to meropenem was measured against dog Dehydropeptidase-1.
In assay [6] the target is Dipeptidase 1 (Homo sapiens) (UniProt P16444). Description: Susceptibility relative to meropenem was measured against human Dehydropeptidase-1.
The species entered for assay [7] is Mus musculus. The experiment in a line: Susceptibility relative to meropenem was measured against mouse DHP-1.
In assay [8] the target is Dipeptidase 1 (Rattus norvegicus) (UniProt P31430). Description: Susceptibility relative to meropenem was measured against rat Dehydropeptidase-1.
A further assay is filed under the species Oryctolagus cuniculus. Description: Susceptibility relative to meropenem was measured against rabbit DHP-1.

Converted amounts (≈) assume the structure as drawn.

Sequence of Dipeptidase 1 (Homo sapiens) (P16444 whole entry, looked up): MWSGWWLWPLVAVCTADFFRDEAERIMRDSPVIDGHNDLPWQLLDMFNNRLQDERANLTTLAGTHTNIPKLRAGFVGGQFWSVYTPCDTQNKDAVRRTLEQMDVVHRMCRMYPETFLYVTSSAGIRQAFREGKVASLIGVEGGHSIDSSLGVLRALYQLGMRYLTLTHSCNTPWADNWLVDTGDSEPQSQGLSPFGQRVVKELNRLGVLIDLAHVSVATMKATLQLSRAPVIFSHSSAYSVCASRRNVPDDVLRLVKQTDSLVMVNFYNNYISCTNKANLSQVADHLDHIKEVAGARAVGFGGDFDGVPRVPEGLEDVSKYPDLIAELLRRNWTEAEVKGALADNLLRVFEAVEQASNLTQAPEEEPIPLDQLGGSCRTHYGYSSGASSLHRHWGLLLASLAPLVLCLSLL
Sequence of Dipeptidase 1 (Rattus norvegicus) (P31430 whole entry, looked up): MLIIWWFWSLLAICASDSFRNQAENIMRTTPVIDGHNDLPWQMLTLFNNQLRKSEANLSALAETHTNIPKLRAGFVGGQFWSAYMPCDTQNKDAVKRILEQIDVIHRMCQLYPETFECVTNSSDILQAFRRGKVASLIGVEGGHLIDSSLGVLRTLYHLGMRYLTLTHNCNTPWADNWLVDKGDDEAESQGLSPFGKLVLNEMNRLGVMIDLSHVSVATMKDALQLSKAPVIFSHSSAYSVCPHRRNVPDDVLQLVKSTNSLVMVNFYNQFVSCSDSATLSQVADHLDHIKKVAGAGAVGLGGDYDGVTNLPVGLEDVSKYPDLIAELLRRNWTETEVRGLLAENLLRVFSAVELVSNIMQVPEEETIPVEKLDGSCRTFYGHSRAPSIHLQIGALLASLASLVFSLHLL

For orientation: MIC means the smallest concentration in the dilution series that meets the test's criterion for growth inhibition. Regarding `COC/C(=C\[C@@H]1CCCN1)C1=C(C(=O)O)N2C(=O)[C@H]([C@@H](C)O)[C@H]2C1`, the minimum inhibitory concentration (MIC) was more than 100 µg/mL in the assay on Staphylococcus aureus [1]; 0.2 µg/mL (≈ 0.595 µM) in the assay with Staphylococcus aureus [2]; 50 µg/mL (≈ 149 µM) in the assay with Proteus vulgaris; 25 µg/mL (≈ 74.3 µM) with Pseudomonas aeruginosa; 0.78 µg/mL (≈ 2.32 µM) in the assay on Escherichia coli. In addition, the Susceptibility in assay [3] is less than 0.008. In addition, in the assay on Mus musculus [4], the Recovery came to 64.4%.

For the molecule `C[C@@H](O)[C@H]1C(=O)N2C(C(=O)O)=C(SCCNC=N)C[C@H]12.O` [IMIPENEM], the minimal inhibitory concentration (MIC) with Staphylococcus aureus [1] was 100 µg/mL; against Staphylococcus aureus [2], less than 0.025 µg/mL; with Proteus vulgaris, 3.13 µg/mL; against Pseudomonas aeruginosa, 0.78 µg/mL; in the assay on Escherichia coli, 0.78 µg/mL. Besides, the Susceptibility in [3] is 1. For the same molecule, the Recovery with Mus musculus [4] was 28.9%.

Take `C[C@@H](O)[C@H]1C(=O)N2C(C(=O)O)=C(/C=C/[C@@H]3CCCN3)C[C@H]12`: the MIC is more than 100 µg/mL in the assay on Staphylococcus aureus [1]; 0.1 µg/mL (≈ 0.342 µM) with Staphylococcus aureus [2]; 1.56 µg/mL (≈ 5.34 µM) in the assay on Proteus vulgaris; 3.13 µg/mL (≈ 10.7 µM) in the assay on Pseudomonas aeruginosa; 1.56 µg/mL (≈ 5.34 µM) against Escherichia coli. Besides, the Susceptibility in [3] turned out to be 0.22. The Recovery in the assay with Mus musculus [4] came to 20.2%.

With `C[C@@H](O)[C@H]1C(=O)N2C(C(=O)O)=C(/C=C/[C@@H]3CCCN3)[C@H](C)[C@H]12`, the MIC against Staphylococcus aureus [1] was 100 µg/mL (≈ 326 µM); with Staphylococcus aureus [2], less than 0.025 µg/mL; with Proteus vulgaris, 6.25 µg/mL (≈ 20.4 µM); against Pseudomonas aeruginosa, 3.13 µg/mL (≈ 10.2 µM); against Escherichia coli it was 0.78 µg/mL (≈ 2.55 µM). Also, the Susceptibility in assay [3] came to 0.043. For the same molecule, in the assay with Mus musculus [4], the Recovery was 60.7%.

Regarding `C[C@@H](O)[C@H]1C(=O)N2C(C(=O)O)=C(/C(=C/[C@@H]3CCCN3)CN)C[C@H]12`, the MIC in the assay with Staphylococcus aureus [1] is more than 100 µg/mL; against Staphylococcus aureus [2] it was 0.78 µg/mL (≈ 2.43 µM); against Proteus vulgaris, more than 100 µg/mL; in the assay with Pseudomonas aeruginosa it was more than 100 µg/mL; against Escherichia coli, 100 µg/mL (≈ 311 µM). Moreover, the Susceptibility in assay [3] stood at 0.004. In the assay on Mus musculus [4], the Recovery is 52.1%.

In the case of `CSC/C(=C\[C@@H]1CCCN1)C1=C(C(=O)O)N2C(=O)[C@H]([C@@H](C)O)[C@H]2C1`, the MIC with Staphylococcus aureus [1] stood at 100 µg/mL (≈ 284 µM); in the assay on Staphylococcus aureus [2] it was 0.1 µg/mL (≈ 0.284 µM); against Proteus vulgaris it was 3.13 µg/mL (≈ 8.88 µM); in the assay with Pseudomonas aeruginosa, 25 µg/mL (≈ 70.9 µM); against Escherichia coli it was 0.78 µg/mL (≈ 2.21 µM). The Susceptibility in assay [3] is less than 0.006. Besides, the Recovery in the assay on Mus musculus [4] amounted to 54.3%.

As to `C/C(=C\[C@@H]1CCCN1)C1=C(C(=O)O)N2C(=O)[C@H]([C@@H](C)O)[C@H]2C1`, the MIC in the assay on Staphylococcus aureus [1] is 50 µg/mL (≈ 163 µM); with Staphylococcus aureus [2], less than 0.025 µg/mL; against Proteus vulgaris it was 1.56 µg/mL (≈ 5.09 µM); in the assay with Pseudomonas aeruginosa, 3.13 µg/mL (≈ 10.2 µM); in the assay with Escherichia coli, 0.39 µg/mL (≈ 1.27 µM). In addition, the Susceptibility amounted to 0.036 in [3]; 0.032 in the assay on Cercopithecidae; 0.249 in [5]; 0.45 in [6]; 0.45 in the assay filed under Mus musculus [7]; 0.11 in assay [8]. The Susceptibility in the assay filed under Oryctolagus cuniculus was 0.015. The Recovery in the assay on Mus musculus [4] was 67.8%.
